Experiments:
[1] = Tolerance in db/db during wound healing study; assay type: in vivo, mice; details: systemic, every other day, two week period
Method: (§1) The first tolerance test was conducted on the CD-1 athymic (Charles River Laboratories). Briefly, CD-1 of 4-6 weeks old, 20 g in weight, were housed in filter topped cages. Sodium stibogluconate a known PTPRK inhibitor was injected, via the intraperitoneal route, on a daily basis. The compound was given at 100 final concentration (equivalent to ˜10 mg/kg body weight) in 100 ul in volume. CD-1 were observed daily, weighed twice weekly. An additional tolerance and efficacy test was carried out using the db/db strain.
(§2) The diabetic strain of db/db was obtained from Harlan. 4-6 weeks old with body weight at 20 g were used. Creation of a wound was according to a recently described method. Briefly, after being housed for a week, the db/db were first ear-pieced using an puncher, in order to create a wound (hole) of 1 mm in diameter. The following day after wound creation, all the db/db were weighed and the wound was photographed using a digital camera. Treatment was given systemically (by IP injection) or topically (by manually applying the compound in gel into the wound area). Both treatments were given every other day, twice weekly or weekly. Images were obtained weekly. The size of the wounds was determined using an image analysis software and is shown here as the area in pixels.
Formulation of the Compounds. • 1. For systemic application, Sodium stibogluconate was dissolved in BSS and diluted in the same for the required concentration. The solutions were prepared that each 100 ul contained the correct amount of compounds and was aliquatted and stored as such at −20° C. until used. The compound was injected every other day by the IP route. • 2. For topical application, we used two carrier gels that are currently used in wound care, namely Bactroban and Aquagel. From the concentrated master stock of Sodium stibogluconate, 100 ul of the stock solution was mixed with 2 grams of the respective gels, followed by low speed homogenisation using a hand held homogeniser, for 2 minutes. […]

HECV cells = assay: ECIS cell adhesion assay, HECV endothelial cells; assay type: cell-based, human
Method: HaCaT, a human keratinocyte cell line was purchased from the German Cancer Centre, HECV, a human vascular endothelial cells from Interlab, Milan, Italy, DB/DB mice from Harlan UK.
HaCaT and HECV cells, which were positive for PTPRK, were transfected with anti-PTPRK transgenes by way of electroporation (270 v). After selection with a selection medium (DMEM with 10 ug/ml blasticidin) for 10 days, clones of selected cells were pooled and used for subsequent analysis.
(§3) Three models of ECIS instrument were used: ECIS 9600 for screening and ECIS1600R and ECIS Z8 for modelling. In all systems, 8W10 arrays were used (Applied Biophysics Inc., Troy, N.Y., USA) (Giaever and Keese 1991, Kees et al 2004). Following treating the array surface with a Cysteine solution (or array stabilization procedure for ECIS Z8), the arrays were incubated with complete medium for 1 hr Electric changes were continuously monitored for up to 24 hrs. In the 9600 system, the monitoring was at fixed […]. In the 1600R and ECIS Zθ systems, cells were monitored at 62.5, 125, 250, 500, 1,000, 2,000, 4,000, 8,000, 16,000, 32,000 and 64,000 Hz. The adhesion was analysed by the integrated Rb modelling method.

db/db mice = assay: In vivo efficacy test, ear-punch wound healing in diabetic db/db; details: for rate of wound healing: 2-100 mg/ml
Description: as §2
Formulation of the Compounds. • 1. For systemic application, Sodium stibogluconate was dissolved in BSS and diluted in the same for the required concentration. The solutions were prepared that each 100 ul contained the correct amount of compounds and was aliquatted and stored as such at −20° C. until used. The compound was injected every other day by the IP route. • 2. For topical application, we used two carrier gels that are currently used in wound care, namely Bactroban and Aquagel. From the concentrated master stock of Sodium stibogluconate, 100 ul of the stock solution was mixed with 2 grams of the respective gels, followed by low speed homogenisation using a hand held homogeniser, for 2 minutes. […] For use, small amount (150 ul) of the gel was applied to the wound area and gently rubbed in using fingers. • 3. […] Sodium stibogluconate increased the rate of wound healing without producing any side effects. • Sodium stibogluconate was given systemically, at 100 uM.
Using the same db/db mice, we further tested the possible dose response by applying stibogluconate at 2 mg/ml. 20 mg/ml and 100 mg/ml, using topical applications. At the same time, we tested two treatment methods: applying the agent on a weekly basis or twice weekly basis. We determined the size of the wound on a weekly basis. […] Using a Two-way ANOVA (Holm-Sidak model), it was shown that in both treatment regimes, there was a highly significant difference between the treatment group and control group, p=0.013, […] and 0.009, control vs 2 mg/ml, 20 mg/ml and 100 mg respectively, for the twice weekly treatment, and p=0.05, 0.013, 0.009 for the weekly treatment group.

[2] = In vivo tolerance test in CD-1 athymic; details: intraperitoneal, daily, ~10 mg/kg body weight
Method: as §1
The first tolerance test was conducted the CD-1 athymic (Charles River Laboratories). Briefly, CD-1 of 4-6 weeks old, 20 g in weight, were housed in filter topped cages. Sodium stibogluconate was injected, via the intraperitoneal route, on a daily basis. The compound was given at 100 final concentration (equivalent to 10 mg/kg body weight) in 100 ul in volume. CD-1 were observed daily, weighed twice weekly. An additional tolerance and efficacy test was carried out using the db/db strain.

HaCaT cells = assay: ECIS wounding (migration) assay, HaCaT keratinocytes; assay type: cell-based, human; details: over a range of concentrations
Method: as §3
Using the ECIS Theta96 model, we tested the response of cells to stibugluconate over a range of concentrations. HaCaT cells responded over the range of concentrations tested in that there was an increase in cell adhesion between 0.16-20 uM with 20 uM showing the maximum effects, FIGS. 5 & 6. Likewise, the cells also responded to stibogluconate by increasing their migration from concentrations as low as 160 nM to 100 uM, FIGS. 7, 8 & 9.

## O.O.O.O.O.O.O.O.O.O=C([O-])[C@@H]1[O][Sb]2([O-])([O][Sb]34([OH])[O][C@H]([C@H](O)CO)[C@H]([O]3)[C@H](C(=O)[O-])[O]4)[O][C@H]([C@H](O)CO)[C@@H]1[O]2.[Na+].[Na+].[Na+] [stibogluconate, Sodium stibogluconate]
[1]
  side effects: did not observe any side effects
  tolerance: well tolerated
  weight loss: no weight loss
HECV cells; HECV/WT treated with stibogluconate
  cell adhesion to the surface of the electrode (ECIS): rapid adhesion
HECV cells; PTPRK knock-down cells, ECIS adhesion
  response to stibogluconate of HECV/PTPRKrib cells compared with HECV/WT: markedly reduced
db/db mice; systemic (IP) at 100 uM, after one week
  wound size versus control group: smaller than the control group
db/db mice; topical
  twice weekly versus weekly administration, rate of wound healing: marginally more effective
db/db mice; topical, twice weekly application
  rate of wound healing: rapid rate of wound healing
db/db mice; topical, weekly application
  rate of wound healing: rapid rate of wound healing
db/db mice; treatment removed between third and fourth week, weekly or twice weekly regimen
  effect of interrupting the treatment regimen on healing: adversely affects the healing process
[2]
  tolerance in vivo: Well Tolerated
HaCaT cells
  effect on the migration of the cells (keratinocytes): concentration dependent effect
